Data taken from patent publication US12396471B2, “Composition containing sesamin and PQQ” (SUNTORY HOLDINGS LIMITED, priority 2019, dated 2025).

System: TIG-3 cells
Assay: Evaluation test of mitochondrial function: amount of ATP production (decrease in oxygen consumption rate by oligomycin) after H2O2 treatment
Type: cell-based
Conditions: for Measured value: amount of ATP production (amount of decrease in oxygen consumption rate by the ATP synthase inhibitor): TIG-3 cells cultured 24 h with test substance, then H2O2 800 μM for two hours, XF analyzer, concentrations of SE and PQQ·2Na per example; for Recovery rate (%) from Comparative Example 1: measured value divided by that of Comparative Example 1 (H2O2 800 μM only) x 100
Protocol: To examine mitochondrial function, TIG-3 cells at 5.5×10^3 cells/well were seeded onto cell culture plates, and cultured at 37° C. with CO2 (5%) for 24 hours. After 24 hours of culturing, compositions each containing a sesamin-episesamin mixture and PQQ were added to the media in the wells at the respective concentrations shown in Table 1 below, and cultured for 24 hours. Subsequently, the media containing the sesamin-episesamin mixture and the PQQ were removed, and the cells in the wells were treated with media containing H2O2 (800 μM) for two hours. Subsequently, each medium was replaced with an analysis medium, and the oxygen consumption rate was analyzed using an analyzer (XF analyzer, Agilent Technologies Japan, Ltd.). After completion of analysis, the nuclei were stained with Hoechst, and the cells were photographed by a fluorescence microscope “BZ-x” (Keyence Corporation). The number of cells was counted by image analysis. The amount of ATP production was the amount of decrease in oxygen consumption rate by the ATP synthase inhibitor (oligomycin).
(§1) To examine mitochondrial function, TIG-3 cells at 5.5×10^3 cells/well were seeded onto a dedicated plate, and cultured at 37° C. with CO2 (5%) for 24 hours. The cells were further cultured for 26 hours without adding a sesamin-episesamin mixture and a composition containing PQQ to the medium 24 hours after the first culturing and without treating cells in the well with a medium containing H2O2 (800 μM) for two hours. Then, the oxygen consumption rate in Reference Example 1 was analyzed and the number of cells was counted as in Example 1, except for the differences described above. The amount of ATP production was also measured.
as §1, with “24” for “26”, “culturing.” for “culturing and without treating cells in the well with a medium containing H2O2 (800 μM) for two hours.”, “Comparative” for “Reference”
To examine mitochondrial function, TIG-3 cells at 5.5×10^3 cells/well were seeded onto a dedicated plate, and cultured at 37° C. with CO2 (5%) for 24 hours. After 24 hours of culturing, a sesamin-episesamin mixture or PQQ was added to each medium in the wells at the corresponding concentration shown in Table 1 below, and cultured for 24 hours. Except what is described above, the oxygen consumption rate in each of Comparative Examples 2 to 9 was analyzed, and the number of cells was counted as in Example 1. The amount of ATP production was measured.
In Table 1, values in “Measured value” (pmol/min/10^3 cells) show the amount of ATP production (the amount of decrease in oxygen consumption rate by the ATP synthase inhibitor) determined above.
Values in “Recovery rate (%) from Comparative Example 1” are each obtained by dividing a measured value in one example or comparative example by the measured value of Comparative Example 1 and multiplying the resulting value with 100. A higher recovery rate means a larger amount of ATP production. […] In FIG. 1, “SE” indicates the sesamin-episesamin mixture.

SMILES	Measured value: amount of ATP production (amount of decrease in oxygen consumption rate by the ATP synthase inhibitor) [pmol/min/10^3 cells]	decline in the amount of ATP production compared to the H2O2-treated group according to Comparative Example 1 (TIG-3 cells, H2O2 800 μM) [%]	Recovery rate (%) from Comparative Example 1 (TIG-3 cells) [%]	increase in the amount of ATP production compared to the H2O2-treated group according to Comparative Example 1 (TIG-3 cells, H2O2 800 μM) [%]
O=C([O-])c1cc(C(=O)[O-])c2c(n1)C(=O)C(=O)c1cc(C(=O)O)[nH]c1-2.[Na+].[Na+] [Comparative Example 5, PQQ·2Na]	6.06	5.5	94.5	
O=C([O-])c1cc(C(=O)[O-])c2c(n1)C(=O)C(=O)c1cc(C(=O)O)[nH]c1-2.[Na+].[Na+] [Comparative Example 6, PQQ·2Na]	6.49		101.1	1.1
O=C([O-])c1cc(C(=O)[O-])c2c(n1)C(=O)C(=O)c1cc(C(=O)O)[nH]c1-2.[Na+].[Na+] [Comparative Example 7, PQQ·2Na]	6.71		104.6	4.6
O=C([O-])c1cc(C(=O)[O-])c2c(n1)C(=O)C(=O)c1cc(C(=O)O)[nH]c1-2.[Na+].[Na+] [Comparative Example 8, PQQ·2Na]	7.40		115.3	15.3
O=C([O-])c1cc(C(=O)[O-])c2c(n1)C(=O)C(=O)c1cc(C(=O)O)[nH]c1-2.[Na+].[Na+] [Comparative Example 9, PQQ·2Na]	7.56		117.8	17.8
